# Tested on: PDE4
# Assay: Evaluation of PDE4 inhibition (scintillation proximity assay)
# Type: biochemical
# Details: inhibition rate relative to control, test compound at 1 μM
# Description: Test Example 1 Evaluation of PDE4 Inhibition
# The PDE4 inhibitory activity was measured by using scintillation proximity assay (SPA) as follows: one in which a sample compound dissolved in dimethyl sulfoxide was diluted 10-fold with a buffer solution for reaction containing 50 mM Tris-HCl, pH 7.5, 8.3 mM MgCl2, 1.7 mM EDTA and 0.3 mg/mL bovine serum albumin (BSA) was added at 10 μL/well to a 96-well assay plate. Further, PDE4 diluted 750-fold with a buffer solution for reaction was added at 50 μL/well, then [2,8-^3H]-Adenosine-3′,5′-cyclic phosphate triethylammonium salt diluted 1000-fold with a buffer solution for reaction was added at 40 μL/well, and the plate was left standing at room temperature for 120 minutes. Thereafter, a suspension of RNA binding YSi-SPA Beads containing 200 mM ZnSO4 was added at 50 μL/well, and the plate was left standing at room temperature for 15 minutes to adsorb the enzyme reaction product onto the Beads. Thereafter, the radioactivity was measured with a liquid scintillation counter for 96-well plates. When one supplemented with only a buffer solution for reaction without adding the enzyme preparation was used as a blank and one supplemented with the enzyme preparation but supplemented with only dimethyl sulfoxide instead of the sample solution was used as a control, the inhibition rate of the test compound relative to the control was calculated according to the following calculation expression: Inhibition rate (%)={1−(Numeric value from the addition of each sample−Blank value)/(Control value−Blank value)}×100
row,SMILES,PDE4 inhibitory activity (1 μM (%))
1,"C[C@H]1CNCCN1c1nc2cc(Cl)cc(-c3ncco3)c2o1 [Example 34, (S)-5-Chloro-2-(2-methylpiperazin-1-yl)-7-(oxazol-2-yl)benzoxazole]",89%
2,"C[C@H]1CNCCN1c1nc2cc(Cl)cc(-c3nccs3)c2o1 [Example 35, (S)-5-Chloro-2-(2-methylpiperazin-1-yl)-7-(thiazol-2-yl)benzoxazole]",96%
3,"C[C@H]1CNCCN1c1nc2cc(Cl)cc(-n3ccnc3)c2o1 [Example 36, (S)-5-Chloro-7-(1H-imidazol-1-yl)-2-(2-methylpiperazin-1-yl)benzoxazole]",39%
4,"C[C@H]1CNCCN1c1nc2cc(Cl)cc(-c3cscn3)c2o1 [Example 37, (S)-5-Chloro-2-(2-methylpiperazin-1-yl)-7-(thiazol-4-yl)benzoxazole]",98%
5,"C[C@H]1CNCCN1c1nc2cc(Cl)cc(-c3cncs3)c2o1 [Example 38, (S)-5-Chloro-2-(2-methylpiperazin-1-yl)-7-(thiazol-5-yl)benzoxazole]",68%
6,"Cc1ccc(-c2cc(Cl)cc3nc(N4CCNC[C@@H]4C)oc23)o1 [Example 39, (S)-5-Chloro-7-(5-methylfuran-2-yl)-2-(2-methylpiperazin-1-yl)benzoxazole]",42%
7,"Cc1cnn(-c2cc(Cl)cc3nc(N4CCNC[C@@H]4C)oc23)c1 [Example 40, (S)-5-Chloro-7-(4-methyl-1H-pyrazol-1-yl)-2-(2-methylpiperazin-1-yl)benzoxazole]",68%
8,"C[C@H]1CNCCN1c1nc2cc(Cl)cc(-c3ccccn3)c2o1 [Example 41, (S)-5-Chloro-2-(2-methylpiperazin-1-yl)-7-(pyridin-2-yl)benzoxazole]",93%
9,"C[C@H]1CNCCN1c1nc2cc(Cl)cc(-c3cccnc3)c2o1 [Example 42, (S)-5-Chloro-2-(2-methylpiperazin-1-yl)-7-(pyridin-3-yl)benzoxazole]",66%
10,"C[C@H]1CNCCN1c1nc2cc(Cl)cc(-c3ccncc3)c2o1 [Example 43, (S)-5-Chloro-2-(2-methylpiperazin-1-yl)-7-(pyridin-4-yl)benzoxazole]",61%
11,"C[C@H]1CNCCN1c1nc2cc(Cl)cc(C3CCCCC3)c2o1 [Example 44, (S)-5-Chloro-7-cyclohexyl-2-(2-methylpiperazin-1-yl)benzoxazole]",64%
12,"C[C@H]1CNCCN1c1nc2cc(Cl)cc(-n3nccn3)c2o1 [Example 45, (S)-5-Chloro-2-(2-methylpiperazin-1-yl)-7-(2H-1,2,3-triazol-2-yl)benzoxazole]",87%
13,"C[C@H]1CNCCN1c1nc2cc(Cl)cc(-n3cncn3)c2o1 [Example 46, (S)-5-Chloro-2-(2-methylpiperazin-1-yl)-7-(1H-1,2,4-triazol-1-yl)benzoxazole]",29%
14,"CC(C)Cc1cc(Cl)cc2nc(N3CCNC[C@@H]3C)oc12 [Example 47, (S)-5-Chloro-7-isobutyl-2-(2-methylpiperazin-1-yl)benzoxazole]",35%
15,"C[C@H]1CNCCN1c1nc2cc(Cl)cc(-c3ccccc3CO)c2o1 [Example 48, (S)-5-Chloro-2-(2-methylpiperazin-1-yl)-7-(2-hydroxymethylphenyl)benzoxazole]",53%
16,"C[C@H]1CNCCN1c1nc2cc(Cl)cc(-c3nccn3C)c2o1 [Example 49, (S)-5-Chloro-7-(1-methyl-1H-imidazol-2-yl)-2-(2-methylpiperazin-1-yl)-benzoxazole]",17%
17,"C[C@H]1CNCCN1c1nc2cc(Cl)cc(-c3ncc[nH]3)c2o1 [Example 50, (S)-5-Chloro-7-(1H-imidazol-2-yl)-2-(2-methylpiperazin-1-yl)benzoxazole]",62%
18,"C[C@H]1CNCCN1c1nc2cc(Cl)cc(CC3CCCCC3)c2o1 [Example 51, (S)-5-Chloro-7-(cyclohexylmethyl)-2-(2-methylpiperazin-1-yl)-benzoxazole]",12%
19,"C[C@H]1CNCCN1c1nc2cc(Cl)cc(OC3CCCCC3)c2o1 [Example 52, (S)-5-Chloro-7-(cyclohexyloxy)-2-(2-methylpiperazin-1-yl)benzoxazole]",57%
20,"C[C@H]1CNCCN1c1nc2cc(Cl)cc(OCC3CC3)c2o1 [Example 53, (S)-5-Chloro-7-(cyclopropylmethoxy)-2-(2-methylpiperazin-1-yl)benzoxazole]",50%

row,SMILES,PDE4 inhibitory activity (1 μM (%))
1,"C[C@H]1CNCCN1c1nc2cc(Cl)cc(-c3ccsn3)c2o1 [Example 54, (S)-5-Chloro-7-(isothiazole-3-yl)-2-(2-methylpiperazin-1-yl)benzoxazole]",92%
2,"C[C@H]1CNCCN1c1nc2cc(Cl)cc(-c3ncc(CO)s3)c2o1 [Example 55, (S)-5-Chloro-7-(5-hydroxymethylthiazol-2-yl)-2-(2-methylpiperazin-1-yl)benzoxazole]",80%
3,"C[C@H]1CNCCN1c1nc2cc(Cl)cc(-c3ncccn3)c2o1 [Example 56, (S)-5-Chloro-2-(2-methylpiperazin-1-yl)-7-(pyrimidin-2-yl)benzoxazole]",87%
4,"C[C@H]1CNCCN1c1nc2cc(Cl)cc(-c3ccc(Cl)s3)c2o1 [Example 57, (S)-5-Chloro-7-(5-chlorothiophen-2-yl)-2-(2-methylpiperazin-1-yl)benzoxazole]",54%
5,"C[C@H]1CNCCN1c1nc2cc(Cl)cc(-c3ccc(Cl)cn3)c2o1 [Example 58, (S)-5-Chloro-7-(5-chloropyridin-2-yl)-2-(2-methylpiperazin-1-yl)benzoxazole]",77%
6,"C[C@H]1CNCCN1c1nc2cc(Cl)cc(-c3cc(Cl)ccn3)c2o1 [Example 59, (S)-5-Chloro-7-(4-chloropyridin-2-yl)-2-(2-methylpiperazin-1-yl)benzoxazole]",71%
7,"C[C@H]1CNCCN1c1nc2cc(Cl)cc(-c3cccc(F)n3)c2o1 [Example 60, (S)-5-Chloro-7-(6-fluoropyridin-2-yl)-2-(2-methylpiperazin-1-yl)benzoxazole]",63%
8,"C[C@H]1CNCCN1c1nc2cc(Cl)cc(-c3ncccc3F)c2o1 [Example 61, (S)-5-Chloro-7-(3-fluoropyridin-2-yl)-2-(2-methylpiperazin-1-yl)benzoxazole]",81%
9,"C[C@H]1CNCCN1c1nc2cc(Cl)cc(-c3ncc(C#N)s3)c2o1 [Example 62, (S)-5-Chloro-7-(5-cyanothiazol-2-yl)-2-(2-methylpiperazin-1-yl)benzoxazole]",65%
10,"Cc1cnc(-c2cc(Cl)cc3nc(N4CCNC[C@@H]4C)oc23)s1 [Example 63, (S)-5-Chloro-2-(2-methylpiperazin-1-yl)-7-(5-methylthiazol-2-yl)benzoxazole]",87%
11,"C[C@H]1CNCCN1c1nc2cc(Cl)cc(-c3ccsc3Cl)c2o1 [Example 64, (S)-5-Chloro-7-(2-chlorothiophen-3-yl)-2-(2-methylpiperazin-1-yl)benzoxazole]",73%
12,"C[C@H]1CNCCN1c1nc2cc(Cl)cc(-c3ncc(C(N)=O)s3)c2o1 [Example 65, (S)-5-Chloro-7-(5-carbamoylthiazol-2-yl)-2-(2-methylpiperazin-1-yl)benzoxazole]",83%
13,"C[C@H]1CNCCN1c1nc2cc(Cl)cc(-c3ncccc3C#N)c2o1 [Example 66, (S)-5-Chloro-7-(3-cyanopyridin-2-yl)-2-(2-methylpiperazin-1-yl)benzoxazole]",57%
14,"C[C@H]1CNCCN1c1nc2cc(Cl)cc(-c3ccc(F)s3)c2o1 [Example 67, (S)-5-Chloro-7-(5-fluorothiophen-2-yl)-2-(2-methylpiperazin-1-yl)benzoxazole]",70%
15,"Cc1cccnc1-c1cc(Cl)cc2nc(N3CCNC[C@@H]3C)oc12 [Example 68, (S)-5-Chloro-2-(2-methylpiperazin-1-yl)-7-(3-methylpyridin-2-yl)benzoxazole]",38%
16,"Cc1nc(-c2cc(Cl)cc3nc(N4CCNC[C@@H]4C)oc23)cs1 [Example 69, (S)-5-Chloro-2-(2-methylpiperazin-1-yl)-7-(2-methylthiazol-4-yl)benzoxazole]",65%
17,"C[C@H]1CNCCN1c1nc2cc(Cl)cc(Oc3ccccc3)c2o1 [Example 70, (S)-5-Chloro-2-(2-methylpiperazin-1-yl)-7-phenoxybenzoxazole]",38%
18,"C[C@H]1CNCCN1c1nc2cc(Cl)cc(N3CCCC3=O)c2o1 [Example 71, (S)-5-Chloro-2-(2-methylpiperazin-1-yl)-7-(2-oxo-pyrrolidin-1-yl)benzoxazole]",30%
19,"C[C@H]1CNCCN1c1nc2cc(Cl)cc(N3CCOC3=O)c2o1 [Example 72, (S)-5-Chloro-2-(2-methylpiperazin-1-yl)-7-(2-oxo-oxazolidin-3-yl)benzoxazole]",28%
20,"C[C@H]1CNCCN1c1nc2cc(Cl)cc(-c3ccc(F)cn3)c2o1 [Example 73, (S)-5-Chloro-7-(5-fluoropyridin-2-yl)-2-(2-methylpiperazin-1-yl)benzoxazole]",93%

# Reference: US9890142B2, “PDE4 inhibitor” (Meiji Seika Pharma Co., Ltd., priority 2013, dated 2018)
